Measurements taken from US12559529B2, “NPY2 receptor agonists” (Boehringer Ingelheim International GmbH, priority 2019, dated 2026).
*1 amine or outer side, *2 acyl side, *3 side chain or, on linkers, in order; H or OH if unused. Where a SMILES comes first, the peptide text is derived from it. Side-chain parts run from the residue outwards. The star is where a group is joined. C18 diacid = O=C(O)CCCCCCCCCCCCCCCCC(=O)*; γGlu = O=C(O)[C@H](CCC(=O)[*:2])N[*:1]; Isovaleryl = CC(C)CC(=O)*; AEEA = NCCOCCOCC(=O)O

What was measured:
[1] = molecular target: T1, Human Neuropeptide Y2 Receptor (Homo sapiens, UniProt P49146); assay: Radioligand binding competition assay (RLB); conditions: Table 3; human 125I-PYY (1-36) 0.02 nM, Y2 receptor membranes; read-out: Ki
T1 construct: purchased CHEMICON HTS066M
T1 sequence (P49146 1-381): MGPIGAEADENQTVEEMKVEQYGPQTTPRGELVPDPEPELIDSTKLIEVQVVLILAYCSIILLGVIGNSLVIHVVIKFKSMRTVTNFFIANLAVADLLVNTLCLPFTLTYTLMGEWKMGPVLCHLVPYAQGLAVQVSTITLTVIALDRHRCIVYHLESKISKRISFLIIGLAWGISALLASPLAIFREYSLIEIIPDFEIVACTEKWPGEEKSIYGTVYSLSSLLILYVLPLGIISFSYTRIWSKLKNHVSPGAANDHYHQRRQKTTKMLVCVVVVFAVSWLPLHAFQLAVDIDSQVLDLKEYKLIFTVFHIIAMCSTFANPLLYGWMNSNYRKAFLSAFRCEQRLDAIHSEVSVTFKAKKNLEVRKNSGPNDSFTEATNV
Outline: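 IC50 values come from nonlinear regression of sigmoidal dose-response curves of filter-bound radioactivity. Peptides competed with radioligand at human Y2 receptor membranes (0.5 μg protein/well) for 2 h at room temperature in pH 7.4 HEPES buffer containing Mg2+, Ca2+ and 0.2% ovalbumin.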

[2] = test system: normal NMRI mice; assay: Effect on acute food intake in normal NMRI mice; format: in vivo; conditions: male NMRI mice, 10 nmol/kg subcutaneously once
Method: Male NMRI mice were obtained from Charles River (Charles River, Research Models & Services Germany GmbH) or from Jan Vier (Jan Vier Labs, France) at 5 weeks of age. […] Room temperature was controlled to 21° C.±1° C., with 60%+20% humidity.
Animals were transferred 5-7 days before the start of the study to a real-time food intake monitoring system, HM-2 system (MBRose, Denmark), to allow acclimatization to experimental conditions. As the animals were uniquely identified with microchips, each individual animal was identified by its microchip upon entry and exit from the food channel. Randomization of the mice for each study group (n=7-8) was based on body weight measured the day before the start of the study. A vehicle-treated (50 mM phosphate buffer pH7 with 5% Mannitol) group was included in each experiment. Six hours before the start of the night phase animals were fasted. One hour before the dark phase animals were dosed once subcutaneously (10 nmol/kg) with test peptide. […] The food intake of the treated groups was normalized (in %) to the average food intake of the group receiving vehicle (Table 7). Statistical significance was evaluated using One-way analysis of variance with Turkey's multiple comparison test. P<0.05 was considered statistically significant.

Row | Compound | Ki [1] | Acute Food Intake 24 h [% vehicle] [2]
1 | CC(C)CC(=O)N[C@@H](C)C(=O)N1CCC[C@H]1C(=O)N[C@@H](CCC(=O)O)C(=O)N[C@@H](CCCCNC(=O)COCCOCCNC(=O)COCCOCCNC(=O)CC[C@H](NC(=O)CCCCCCCCCCCCCCCCC(=O)O)C(=O)O)C(=O)N1CCC[C@H]1C(=O)N[C@@H](CCC(=O)O)C(=O)N[C@@H](CCC(=O)O)C(=O)N[C@@H](CC(=O)O)C(=O)N[C@@H](C)C(=O)N[C@@H](CCC(=O)O)C(=O)N1CCC[C@H]1C(=O)N[C@@H](CCC(=O)O)C(=O)N[C@@H](CCC(=O)O)C(=O)N[C@@H](CC(C)C)C(=O)N[C@@H](CCC(N)=O)C(=O)N[C@@H](CCCCN)C(=O)N[C@@H](Cc1ccc(O)cc1)C(=O)N[C@@H](Cc1ccc(O)cc1)C(=O)N[C@H](C(=O)N[C@@H](CO)C(=O)N[C@@H](CC(C)C)C(=O)N[C@@H](CCCNC(=N)N)C(=O)N[C@@H](Cc1c[nH]cn1)C(=O)N[C@@H](Cc1ccc(O)cc1)C(=O)N[C@@H](Cc1ccc(O)cc1)C(=O)N[C@@H](CC(N)=O)C(=O)N[C@@H](Cc1c[nH]c2ccccc12)C(=O)N[C@@H](CC(C)C)C(=O)N[C@H](C(=O)N[C@@H](CCCNC(=N)N)C(=O)N[C@@H](CCC(N)=O)C(=O)N[C@@H](CCCNC(=N)N)C(=O)N[C@@H](Cc1ccc(O)cc1)C(N)=O)[C@@H](C)O)C(C)C [Compound 150, N{alpha-4}-(3-methylbutanoyl)-N{epsilon-7}-[2-(2-{2-[2-(2-{2-[(4S)-4-carboxy-4-(17-carboxyheptadecanamido)butanamido]ethoxy}ethoxy)acetamido]ethoxy}ethoxy)acetamido]-[4A,7K,9E,13E,18Q,19K,22V,28Y,30W,31L]hPYY (4-36)] | 2.02 nM | 67 % vehicle
2 | CC(C)CC(=O)N[C@@H](C)C(=O)N1CCC[C@H]1C(=O)N[C@@H](C)C(=O)N[C@@H](CCCCNC(=O)COCCOCCNC(=O)COCCOCCNC(=O)CC[C@H](NC(=O)CCCCCCCCCCCCCCCCC(=O)O)C(=O)O)C(=O)N1CCC[C@H]1C(=O)N[C@@H](CCC(=O)O)C(=O)N[C@@H](CCC(=O)O)C(=O)N[C@@H](CC(=O)O)C(=O)N[C@@H](C)C(=O)N[C@@H](CO)C(=O)N1CCC[C@H]1C(=O)N[C@@H](CCC(=O)O)C(=O)N[C@@H](CCC(=O)O)C(=O)N[C@@H](CC(C)C)C(=O)N[C@@H](CCC(N)=O)C(=O)N[C@@H](CCCNC(=N)N)C(=O)N[C@@H](Cc1ccc(O)cc1)C(=O)N[C@@H](Cc1ccc(O)cc1)C(=O)N[C@H](C(=O)N[C@@H](CCC(=O)O)C(=O)N[C@@H](CC(C)C)C(=O)N[C@@H](CCCNC(=N)N)C(=O)N[C@@H](Cc1c[nH]cn1)C(=O)N[C@@H](Cc1ccc(O)cc1)C(=O)N[C@@H](Cc1ccc(O)cc1)C(=O)N[C@@H](CC(N)=O)C(=O)N[C@@H](Cc1c[nH]c2ccccc12)C(=O)N[C@@H](CC(C)C)C(=O)N[C@H](C(=O)N[C@@H](CCCNC(=N)N)C(=O)N[C@@H](CCC(N)=O)C(=O)N[C@@H](CCCNC(=N)N)C(=O)N[C@@H](Cc1ccc(O)cc1)C(N)=O)[C@@H](C)O)C(C)C [Compound 173, N{alpha-4}-(3-methylbutanoyl)-N{epsilon-7}-[2-(2-{2-[2-(2-{2-[(4S)-4-carboxy-4-(17-carboxyheptadecanamido)butanamido]ethoxy}ethoxy)acetamido]ethoxy}ethoxy)acetamido]-[4A,6A,7K,9E,18Q,22V,23E,28Y,30W,31L]hPYY (4-36)] | 1.71 nM | 49 % vehicle
3 | CC(C)CC(=O)N[C@@H](C)C(=O)N1CCC[C@H]1C(=O)N[C@@H](CCC(=O)O)C(=O)N[C@@H](CCCCNC(=O)COCCOCCNC(=O)COCCOCCNC(=O)CC[C@H](NC(=O)CCCCCCCCCCCCCCCCC(=O)O)C(=O)O)C(=O)N1CCC[C@H]1C(=O)N[C@@H](CCC(=O)O)C(=O)N[C@@H](C)C(=O)N[C@@H](CC(=O)O)C(=O)N[C@@H](C)C(=O)N[C@@H](CO)C(=O)N[C@@H](CCC(=O)O)C(=O)N[C@@H](CCC(=O)O)C(=O)N[C@@H](CCC(=O)O)C(=O)N[C@@H](CC(C)C)C(=O)N[C@@H](CCC(N)=O)C(=O)N[C@@H](CCCNC(=N)N)C(=O)N[C@@H](Cc1ccc(O)cc1)C(=O)N[C@@H](Cc1ccc(O)cc1)C(=O)N[C@H](C(=O)N[C@@H](CO)C(=O)N[C@@H](CC(C)C)C(=O)N[C@@H](CCCNC(=N)N)C(=O)N[C@@H](Cc1c[nH]cn1)C(=O)N[C@@H](Cc1ccc(O)cc1)C(=O)N[C@@H](Cc1ccc(O)cc1)C(=O)N[C@@H](CC(N)=O)C(=O)N[C@@H](Cc1c[nH]c2ccccc12)C(=O)N[C@@H](CC(C)C)C(=O)N[C@H](C(=O)N[C@@H](CCCNC(=N)N)C(=O)N[C@@H](CCC(N)=O)C(=O)N[C@@H](CCCNC(=N)N)C(=O)N[C@@H](Cc1ccc(O)cc1)C(N)=O)[C@@H](C)O)C(C)C [Compound 30, N{alpha-4}-(3-methylbutanoyl)-N{epsilon-7}-[2-(2-{2-[2-(2-{2-[(4S)-4-carboxy-4-(17-carboxyheptadecanamido)butanamido]ethoxy}ethoxy)acetamido]ethoxy}ethoxy)acetamido]-[4A,7K,9E,10A,14E,18Q,22V,28Y,30W,31L]hPYY (4-36)] |  | 45 % vehicle
4 | CC(C)CC(=O)N[C@@H](C)C(=O)N1CCC[C@H]1C(=O)N[C@@H](CCC(=O)O)C(=O)N[C@@H](CCCCNC(=O)COCCOCCNC(=O)COCCOCCNC(=O)CC[C@H](NC(=O)CCCCCCCCCCCCCCCCC(=O)O)C(=O)O)C(=O)N1CCC[C@H]1C(=O)N[C@@H](CCC(=O)O)C(=O)N[C@@H](C)C(=O)N[C@@H](CC(=O)O)C(=O)N[C@@H](C)C(=O)N[C@@H](CO)C(=O)N1CCC[C@H]1C(=O)N[C@@H](CCC(=O)O)C(=O)N[C@@H](CCC(=O)O)C(=O)N[C@@H](CC(C)C)C(=O)N[C@@H](CCC(=O)O)C(=O)N[C@@H](CCC(N)=O)C(=O)N[C@@H](Cc1ccc(O)cc1)C(=O)N[C@@H](Cc1ccc(O)cc1)C(=O)N[C@H](C(=O)N[C@@H](CO)C(=O)N[C@@H](CC(C)C)C(=O)N[C@@H](CCCNC(=N)N)C(=O)N[C@@H](Cc1c[nH]cn1)C(=O)N[C@@H](Cc1ccc(O)cc1)C(=O)N[C@@H](Cc1ccc(O)cc1)C(=O)N[C@@H](CC(N)=O)C(=O)N[C@@H](Cc1c[nH]c2ccccc12)C(=O)N[C@@H](CC(C)C)C(=O)N[C@H](C(=O)N[C@@H](CCCNC(=N)N)C(=O)N[C@@H](CCC(N)=O)C(=O)N[C@@H](CCCNC(=N)N)C(=O)N[C@@H](Cc1ccc(O)cc1)C(N)=O)[C@@H](C)O)C(C)C [Compound 159, N{alpha-4}-(3-methylbutanoyl)-N{epsilon-7}-[2-(2-{2-[2-(2-{2-[(4S)-4-carboxy-4-(17-carboxyheptadecanamido)butanamido]ethoxy}ethoxy)acetamido]ethoxy}ethoxy)acetamido]-[4A,7K,9E,10A,18E,19Q,22V,28Y,30W,31L]hPYY (4-36)] |  | 53 % vehicle
5 | CC(C)CC(=O)N[C@@H](C)C(=O)N1CCC[C@H]1C(=O)N[C@@H](CCC(=O)O)C(=O)N[C@@H](CCCCNC(=O)COCCOCCNC(=O)COCCOCCNC(=O)CC[C@H](NC(=O)CCCCCCCCCCCCCCCCC(=O)O)C(=O)O)C(=O)N1CCC[C@H]1C(=O)N[C@@H](CCC(=O)O)C(=O)N[C@@H](CCC(=O)O)C(=O)N[C@@H](CCC(=O)O)C(=O)N[C@@H](C)C(=O)N[C@@H](CO)C(=O)N1CCC[C@H]1C(=O)N[C@@H](CCC(=O)O)C(=O)N[C@@H](CCC(=O)O)C(=O)N[C@@H](CC(C)C)C(=O)N[C@@H](CCC(N)=O)C(=O)N[C@@H](CCCNC(=N)N)C(=O)N[C@@H](Cc1ccc(O)cc1)C(=O)N[C@@H](CCC(=O)O)C(=O)N[C@H](C(=O)N[C@@H](CO)C(=O)N[C@@H](CC(C)C)C(=O)N[C@@H](CCCNC(=N)N)C(=O)N[C@@H](Cc1c[nH]cn1)C(=O)N[C@@H](Cc1ccc(O)cc1)C(=O)N[C@@H](Cc1ccc(O)cc1)C(=O)N[C@@H](CC(N)=O)C(=O)N[C@@H](Cc1c[nH]c2ccccc12)C(=O)N[C@@H](CC(C)C)C(=O)N[C@H](C(=O)N[C@@H](CCCNC(=N)N)C(=O)N[C@@H](CCC(N)=O)C(=O)N[C@@H](CCCNC(=N)N)C(=O)N[C@@H](Cc1ccc(O)cc1)C(N)=O)[C@@H](C)O)C(C)C [Compound 154, N{alpha-4}-(3-methylbutanoyl)-N{epsilon-7}-[2-(2-{2-[2-(2-{2-[(4S)-4-carboxy-4-(17-carboxyheptadecanamido)butanamido]ethoxy}ethoxy)acetamido]ethoxy}ethoxy)acetamido]-[4A,7K,9E,11E,18Q,21E,22V,28Y,30W,31L]hPYY (4-36)] (Isovaleryl-APEK([AEEA-AEEA-γGlu-C18 diacid])PEEEASPEELQRYEVSLRHYYNWLTRQRY-NH2) |  | 73 % vehicle
